Laboratory results from patent EP4056546A1, “ALIPHATIC 18F-RADIOLABELING OF A TETRAZINE PRECURSOR” (University of Copenhagen, priority 2021, dated 2022).
Values belong to the molecule of their own block, whether it stands above or below them.

Columns and labels:
[1] = Tetrazine core reactivity test with TCO-PNP (analytical HPLC); assay type: physicochemical; conditions: after 4 hours at r.t.
Description: The reaction between [^18F]13 TCO-PNP was performed by mixing the formulated [^18F]13 (200 µL) with 5 µL of the commercially available TCO-PNP ester dissolved in DMF (5 mg/mL) in an analytical HPLC vial. […]

CC49-TCO = assay: Pretargeted PET/CT imaging in LS174T tumor xenograft bearing mice; assay type: in vivo, Balb/c nude mice
Description: The ability of [^18F]13 to be used as a pretargeting imaging agent was evaluated using a similar pretargeted setup that was used for the ex vivo blocking study in example 7. Mice were administered with CC49-TCO 72 h prior to administration of [^18F]13 where after PET/CT scanning was performed 1 h later. Control animals were injected with unconjugated mAb CC49 instead of CC49-TCO, but were otherwise treated exactly the same. After PET/CT scanning, animals were euthanized and an ex vivo biodistribution performed. […] The tumor uptake was clearly visible. A tumor-to-muscle (T/M) ratio of 20.1 and a tumor-to-blood (T/B) ratio of 1.2 from the image derived data (heart uptake used as surrogate for blood uptake) was determined. The relatively low T/B ratio is likely due to ligation of [^18F]13 with remnant CC49-TCO still circulating in the blood. Clearance of CC49-TCO from blood will most likely increase the ratio drastically. Uptake in tissues beside tumor and blood was low. […]
Pretargeted imaging of [^18F]13 as tested in vivo using the TAG-72 targeting antibody CC49 in human colorectal cancer xenograft tumors LS174T. […] The radioactivity in the tissues were determined using a gamma counter (Wizard^2, Perkin Elmer). Data was corrected for decay, tissue weight and the injected dose of radioactivity. […] Statistical difference between mean %ID/g values were analyzed using Welch's T-test. […]

[2] = Bench stability by analytical HPLC; assay type: physicochemical
Excerpt: The stability of [^18F]13 and it precursor (28) was investigated by analytical HPLC.

[3] = Reaction kinetics measurement: second-order rate constants of tetrazines with TCO (stopped-flow photometer, pseudo-first-order); assay type: physicochemical; conditions: Second order rate constants with TCO at 37 °C in PBS
Description: Reaction kinetics of tetrazines with standard TCO were determined using pseudo-first-order measurements with an excess of the TCO compound in PBS (pH = 7.4) at 37.0 ± 0.1 °C following the decrease of tetrazine absorbance at 535 nm. Measurements were performed in triplicates using an SX20 stopped-flow photometer (Applied Photophysics, UK) equipped with a 535 nm LED light source. Data analysis was performed using Prism 6 (Graphpad) to determine the observed rate constants which were converted into secondorder rate constants through dividing by the TCO concentration.
Second-order rate constants for the reaction with TCO in PBS at 37 °C were determined by pseudo-first order measurements in a SX20 stopped flow photometer (Applied Photophysics).

Structure (SMILES): O=C(O)CN(CC(=O)O)Cc1ccc(-c2nncnn2)cc1OCC[18F] [[^18F]13]
ability to react with TCO-PNP [1]: still able to react quantitatively with TCO-PNP
tumor-to-muscle ratio in comparison with [64Cu]Cu-NOTa-PEG7-H-Tz, [111In]Tz-Tg and ZZ (CC49-TCO; PET imaging, Figure 6): highest tumor-to-musle ratio
Uptake in tissues beside tumor and blood (CC49-TCO; PET/CT 1 h p.i., CC49-TCO pretargeted): low
Stability at r.t. over 4 hours ([2]; after 4 hours, Figure 5A): no signs of decomposition
stability (time stable) ([2]; analytical HPLC, r.t.): at least 4 hours

Structure (SMILES): O=C(O)C(F)(F)F.O=C(O)CN(CCF)Cc1cc(F)cc(-c2nncnn2)c1 [Compound 9, N-(carboxymethyl)-2-fluoro-N-(3-fluoro-5-(1,2,4,5-tetrazin-3-yl)benzyl)ethanaminium 2,2,2-trifluoroacetate]
Rate constant [3]: 87722 M⁻¹ s⁻¹

Structure (SMILES): O=C(O)C(F)(F)F.O=C(O)CN(CCF)Cc1ccc(-c2nncnn2)cc1 [Compound 12, N-(4-(1,2,4,5-tetrazin-3-yl)benzyl)-N-(carboxymethyl)-2-fluoroethanaminium 2,2,2-trifluoroacetate]
Rate constant [3]: 54999 M⁻¹ s⁻¹

stability of the precursor ([2]; bench stability, analytical HPLC): decomposed over time
stability of the precursor (time stable) ([2]; dissolved (25 mg/mL) in DMSO and frozen at -20 °C): at least 3 months
stability of the precursor (time stable) ([2]; stored at -20 °C as a solid): ≥ 3 months
Structure (SMILES): CC(C)(C)OC(=O)CN(CC(=O)OC(C)(C)C)Cc1ccc(-c2nncnn2)cc1OCCOS(=O)(=O)c1ccc([N+](=O)[O-])cc1 [Compound 28, Di-tert-butyl 2,2'-((2-(2-(((4-nitrophenyl)sulfonyl)oxy)ethoxy)-4-(1,2,4,5-tetrazin-3-yl)benzyl)azanediyl)diacetate]

Structure (SMILES): O=C(O)C(F)(F)F.O=C(O)CN(CCF)Cc1cccc(-c2nncnn2)c1 [Compound 10, N-(3-(1,2,4,5-tetrazin-3-yl)benzyl)-N-(carboxymethyl)-2-fluoroethanaminium 2,2,2-trifluoroacetate]
Rate constant [3]: 62464 M⁻¹ s⁻¹

Structure (SMILES): O=C(O)C(F)(F)F.O=C(O)CN(CC(=O)O)Cc1ccc(-c2nncnn2)cc1OCCF [Compound 13, 1-Carboxy-N-(carboxymethyl)-N-(2-(2-fluoroethoxy)-4-(1,2,4,5-tetrazin-3-yl)benzyl) methanaminium 2,2,2-trifluoroacetate]
Rate constant [3]: 68478 M⁻¹ s⁻¹

Structure (SMILES): O=C(O)C(F)(F)F.O=C(O)CN(CCF)Cc1ccc(-c2nncnn2)cc1F [Compound 11, N-(carboxymethyl)-2-fluoro-N-(2-fluoro-4-(1,2,4,5-tetrazin-3-yl)benzyl)ethanaminium 2,2,2-trifluoroacetate]
Rate constant [3]: 74592 M⁻¹ s⁻¹
